From PMC8405463, “Development of a method for assessing the accumulation and metabolization of antidepressant drugs in zebrafish (Danio rerio) eleutheroembryos” (Analytical and Bioanalytical Chemistry, 2021)
Counter-ions that a name gives are not always drawn. Like-named read-outs stand apart in the source and are kept apart here.

How the values were obtained:
[1] = set-up: method as in earlier work; settings: ref EPI suite (Experimental database or KOWWIN v1.67) and ChemAxon; cited from earlier work
[2] = system: zebrafish (Danio rerio) eleutheroembryos; experiment: Bioconcentration experiment (OECD 305 based), 48 h exposure; assay type: in vivo; settings: pH 7.8; for BCF48h: Cf(48h)/Cw(48h); for BCFk: k1/k2, first-order one-compartment model, 48 h
Method: Zebrafish eleutheroembryos were cultured from wild-type adult zebrafish bred and maintained in AZTI Zebrafish Facility (REGA ES489010006105) under standard conditions. The OECD 305 technical guidance was used as reference to establish the experimental conditions for growing as well as the nominal concentrations for the contaminants (dissolved oxygen ≥ 60 %, 27°C and pH 7.8 ± 0.2). Exposure solutions were prepared with the composition of fresh river water (ISO 73463 [43]): 220.5 mg of CaCl2, 63 mg of NaHCO3, 5.5 mg of KCl, and 60.1 mg of MgSO4 per liter of distilled water in plastic tanks.
[…]. […] […].
Bioconcentration factor (BCF) was estimated as the ratio between the concentration of the compound in the target organism, at the maximum time of exposure and the mean calculated in the exposure medium (BCF48h). […]
Where Cf is the concentration in fish (ng·g^-1), t is the exposure time (h), k1 is the first-order uptake constant (L·kg^-1·h^-1), Cw is the concentration of the chemical in the exposure media (μg·L^-1), and k2 is the first-order elimination rate constant (h^-1). Assuming a negligible concentration in fish samples at t0 and considering its constant in the exposure medium, the equations can be expressed as: 3 Cfuptake=k1/k2.Cw1−e^−k2t 4 Cfdepuration=Cf,0.e^−k2t
Where Cf,0 denotes the compound concentration in the organism, when the depuration phase starts. Experimental kinetics data were done using the software NONLIN 5.1, which is specific for no linear adjustments (Nashville, TN). BCFs were calculated applying the two procedures, getting BCF48h (Cf (48h) / Cw (48h)) and BCFk (k1/k2) for comparison purposes when steady state is reached.

[3] = SSRI metabolization in eleutheroembryos exposed to the mixture of parent compounds; settings: zebrafish (Danio rerio), whole eleutheroembryos (larvae), other: waterborne exposure in exposure medium, pH 7.8, metabolite concentration in eleutheroembryos; for concentration at 6 h: t = 6h; for concentration at 24 h: t = 24h; for concentration at 45 h: t = 45h; for concentration at 48 h: t = 48h
Method: (§1) […] The concentration of the target analyte was determined in both eleutheroembryos and exposure medium all throughout the experiment.
(§2) Fish roe samples from lumpfish and zebrafish eleutheroembryos: 10 mg of wet weigh (w/w) fortified with a solution containing all tested pharmaceuticals at 240 ng·g^-1 and paroxetine d6 as IS at 100 ng·g^-1 was a mixture with 500 μL of acetonitrile and sonicated with ultrasonic probe at 40% of amplitude for 60 s to assist the extraction of the selected compounds and the mixture was centrifuged. The residue was discarded, and the supernatant was cleaned using 100 mg of C18, vortexed for 30 s, and centrifuged. Acetonitrile was led to evaporation before derivatization and injection to the GC-MS following the same steps as described above.

[4] = system: zebrafish (Danio rerio) eleutheroembryos; experiment: as above
Method: as §1, §2

human liver microsomes = system: human liver microsomes; set-up: method as in PMID 1389950; settings: citalopram metabolized by cytochrome P450 isozyme to N-desmethylcitalopram; cited from earlier work
[5] = ref SCIfinder; cited from earlier work
adult zebrafish = settings: cited from earlier work
[6] = system: Japanese medaka (Oryzias latipes); settings: cited from earlier work; for average concentration in fish: Japanese medaka exposed to fluoxetine, day 7
zebrafish larvae = settings: cited from earlier work; for calculated BCFs: individual compounds and mixtures at 5, 10 and 25 μg·L^-1
[7] = system: adult male fathead minnows (Phimephales promelas); settings: plasma, 3, 11 and 28 ng·L^-1 in water; cited from earlier work
[8] = parent exposure concentration 80 μg·L^-1
[9] = parent exposure concentration 300 μg·L^-1
[10] = parent exposure concentration 80 μg·L^-1, t = 6h
[11] = parent exposure concentration 80 μg·L^-1, t = 24h
[12] = parent exposure concentration 80 μg·L^-1, t = 45h
[13] = parent exposure concentration 80 μg·L^-1, t = 48h
[14] = parent exposure concentration 300 μg·L^-1, t = 6h
[15] = parent exposure concentration 300 μg·L^-1, t = 24h
[16] = parent exposure concentration 300 μg·L^-1, t = 45h
[17] = parent exposure concentration 300 μg·L^-1, t = 48h

CN(C)CCCC1(c2ccc(F)cc2)OCc2cc(C#N)ccc21 (stereo not shown) [Citalopram, citalopram hydrobromide]
Log kow [1]: 3.74

CNCCCC1(c2ccc(F)cc2)OCc2cc(C#N)ccc21 (stereo not shown) [Desmethylcitalopram, desmethylcitalopram hydrochloride]
BCF48h ([2]; nominal 80 μg·L^-1): 0.69
BCF48h ([2]; nominal 300 μg·L^-1): 0.21
BCFk ([2]; nominal 80 μg·L^-1): 0.7
BCFk ([2]; nominal 300 μg·L^-1): 0.35
concentration at 6 h [3, 8]: 8.9 ng/g
concentration at 24 h [3, 8]: 10.1 ng/g
concentration at 45 h [3, 8]: 14.3 ng/g
concentration at 48 h [3, 8]: 32.3 ng/g
concentration at 6 h [3, 9]: 118 ng/g
concentration at 24 h [3, 9]: 297 ng/g
concentration at 45 h [3, 9]: 203 ng/g
concentration at 48 h [3, 9]: 123 ng/g
ratio metabolite / parent compound in the larvae [4, 10]: 0.07
ratio metabolite / parent compound in the larvae [4, 11]: 0.06
ratio metabolite / parent compound in the larvae [4, 12]: 0.15
ratio metabolite / parent compound in the larvae [4, 13]: 0.54
ratio metabolite / parent compound in the larvae [4, 14]: 0.47
ratio metabolite / parent compound in the larvae [4, 15]: 0.78
ratio metabolite / parent compound in the larvae [4, 16]: 0.15
ratio metabolite / parent compound in the larvae [4, 17]: 0.26
Log kow [1]: 3.38
ratio for the metabolite (human liver microsomes): 5–10 fold
pKa [5]: 10.54

CNCCC(Oc1ccc(C(F)(F)F)cc1)c1ccccc1 (stereo not shown) [Fluoxetine, Fluoxetine hydrochloride]
Log kow [1]: 4.65
BCF (adult zebrafish; exposed to 0.9 and 3.20 μg·L^-1): 20 L/kg
average concentration in fish [6]: 40.8 ± 5.0 ng·g^-1 w.w.
kinetic BCF ([6]; Japanese medaka, nominal fluoxetine concentration 640 ng·L^-1): 80
BCF ([6]; Japanese medaka, pH 7): 9 L/kg
BCF ([6]; Japanese medaka, pH 8): 30 L/kg
BCF ([6]; Japanese medaka, pH 9): 260 L/kg
bioaccumulation (zebrafish larvae; high concentration exposure 5000 μg·L^-1): 195
calculated BCFs (zebrafish larvae): 94–170
bioaccumulation (zebrafish larvae; low and moderate concentrations 10–50 μg·L^-1): around 30

NCCC(Oc1ccc(C(F)(F)F)cc1)c1ccccc1 (stereo not shown) [Norfluoxetine, norfluoxetine hydrochloride]
pKa [5]: 9.05
average concentration in fish [6]: 64.3 ± 8.7 ng·g^-1 w.w.

N[C@H]1CC[C@@H](c2ccc(Cl)c(Cl)c2)c2ccccc21 [Norsertraline, norsertraline hydrochloride]
BCF48h ([2]; nominal 50 μg·L^-1): 26.5
BCFk ([2]; nominal 50 μg·L^-1): 38
metabolite concentration in eleutheroembryos [4, 10]: 44.4 ng/g
ratio metabolite / parent compound in the larvae [4, 10]: 0.17
metabolite concentration in eleutheroembryos [4, 11]: 504.0 ng/g
ratio metabolite / parent compound in the larvae [4, 11]: 0.12
metabolite concentration in eleutheroembryos [4, 12]: 751.8 ng/g
ratio metabolite / parent compound in the larvae [4, 12]: 0.33
metabolite concentration in eleutheroembryos [4, 13]: 731.3 ng/g
ratio metabolite / parent compound in the larvae [4, 13]: 0.16
metabolite concentration in eleutheroembryos [4, 14]: 141.4 ng/g
ratio metabolite / parent compound in the larvae [4, 14]: 0.17
metabolite concentration in eleutheroembryos [4, 15]: 1228.7 ng/g
ratio metabolite / parent compound in the larvae [4, 15]: 0.18
metabolite concentration in eleutheroembryos [4, 16]: 1968.2 ng/g
ratio metabolite / parent compound in the larvae [4, 16]: 0.41
metabolite concentration in eleutheroembryos [4, 17]: 2594.7 ng/g
ratio metabolite / parent compound in the larvae [4, 17]: 0.47
Log kow [1]: 4.72

Fc1ccc([C@@H]2CCNC[C@H]2COc2ccc3c(c2)OCO3)cc1 [Paroxetine, paroxetine hemihydrate]
Log kow [1]: 3.95
pKa [5]: 9.90
calculated BCFs (zebrafish larvae): 190–290

CN[C@H]1CC[C@@H](c2ccc(Cl)c(Cl)c2)c2ccccc21 [Sertraline, sertraline hydrochloride]
Log kow [1]: 5.29
bioaccumulation values [7]: approximately 80
BCF (adult zebrafish; exposed to 0.2 and 0.76 μg·L^-1): 50 to 70 L/kg
